From patent US20030143228A1, “Human telomerase reverse transcriptase as a class-II restricted tumor-associated antigen” (Baylor College of Medicine, priority 2001, published 2003) come the findings set out here.

The test system of this test is hTRT-positive tumor lysates. Kind of test: CD4+ T-cell response to DC pulsed with tumor lysates. Format: cell-based, human. The note with it: LNCaP-FGC, BT-474, MDA-MB231, SK-MEL37, NA-6-MEL; GM-CSF release and [3H]-thymidine incorporation. As to the method:
Tumor cells (5×10^7) were washed twice with PBS, resuspended in 2 ml of DC culture medium, and then lysed by 5 freeze-thaw cycles. The cells were sonicated for 10 minutes and then centrifuged at 15,000 g for 30 min (4° C.). Supernatant was recovered, aliquoted and stored at −70° C. until further use. 20 ul of the supernatant were added to a total of 5×10^5 DC in 500 ul of DC culture medium. Proteins or peptides were then added to the DC culture at different concentrations. After overnight incubation, the pulsed DC were carefully washed with PBS and irradiated with 40 Gy prior to coculture with T cells.
CD4+ T-cells react with antigen presenting cells (APCs) that take up and process the tumor antigen protein from apoptotic and dead tumor cells. Thus, the capacity of the hTRT672-reactive CD4+ T-cells clones to become activated when cocultured with APCs pulsed with lysates from different tumor types was tested.
The hTRT672 T-cell clones (2.5×10^4/well) were stimulated with autologous DC (2.5×10^3/well) pulsed with hTRT-positive tumor lysates, including the prostate tumor line LNCaP-FGC, breast tumor lines (BT-474 and MDA-MB231), melanoma lines (SK-MEL37 and NA-6-MEL), and leukemia lines (HL-60 and Jurkat), or hTRT-negative cell lysate (GM847). GM-CSF release and [^3H]-thymidine incorporation by the T-cells was measured.

Consider RPGLLGASVLGLDDI [hTRT672], for which the “T-cell clone response to DC pulsed with hTRT+ tumor lysates” value was “proliferated and secreted GM-CSF”.
